Source: patent EP0033825A2, “2-Cyano-vinyl-(thiono)(thiol)-phosphoric or phosphonic acid derivatives as endoparasiticidal agents” (priority 1980, dated 1981)
Read-outs that look alike come from different tables or passages of the source.

Key:
[1] = tested on: gegen Benzimidazol-Anthelmintika resistenten Haemonchus contortus; experiment: Haemonchus contortus/sheep test, benzimidazole-resistant strain (faecal egg count before and after oral treatment); type: in vivo; conditions: read-out: Dosis effectiva minima (Red. ≥90 %) resistenter Stamm
Source text: (§1) Haemonchus contortus/Schaf
(§2) Experimentell mit normal empfindlichen bzw. mit gegen Benzimidazol-Anthelmintika resistenten Haemonchus contortus infizierte Schafe wurden nach Ablauf der Präpatenzzeit des Parasiten behandelt. Die Wirkstoffe wurde als reiner Wirkstoff in Gelatinekapseln oral appliziert.
(§3) Der Wirkungsgrad wird dadurch bestimmt, daß man die mit dem Kot ausgeschiedenen Wurmeier vor und nach der Behandlung quantitativ auszählt.
(§4) Ein völliges Sistieren der Eiausscheidung nach der Behandlung bedeutet, daß die Würmer abgetrieben wurden oder so geschädigt sind, daß sie keine Eier mehr produzieren (Dosis effectiva).
(§5) Geprüfte Wirkstoffe und wirksame Dosierungen (Dosis effectiva minima) sind aus der nachfolgenden Tabelle ersichtlich: […]

[2] = tested on: normal empfindlichen Haemonchus contortus; experiment: Haemonchus contortus/sheep test, normally sensitive strain (faecal egg count before and after oral treatment); type: in vivo; conditions: Schaf, pure active substance in gelatine capsules, treated after prepatent period, reduction of worm egg excretion ≥90 %, read-out: Dosis effectiva minima (Red. ≥90 %) normal empfind-licher Stamm
Source text: as §1, §2, §3, §4, §5

[3] = Schaf, oral, pure active substance in gelatine capsules, treated after prepatent period, reduction of worm egg excretion ≥90 %, benzimidazole-resistant strain

SMILES	minimal effective dose ([1]; po)	minimal effective dose [2]	minimal effective dose [1, 3]
CCCSc1ccc2nc(NC(=O)OC)[nH]c2c1 [Albendazol, Methyl-(5-prepylthio-benzimidazol-2-yl)-carbamat]	5 mg/kg	0.5 mg/kg	
COC(=O)Nc1nc2ccc(Sc3ccccc3)cc2[nH]1 [Fenbendazol, Methyl-(5-phenyl-thie-benzimidazol-2-yl)-carbamat]	2.5 mg/kg	0.5 mg/kg	
CCCCc1ccc2[nH]c(NC(=O)OC)nc2c1 [Parbendazol, 5-N-Butyl-2-methoxycarbonylaminobenzimidazol]	10 mg/kg	1 mg/kg	
c1ccc2[nH]c(-c3cscn3)nc2c1 [Thiabendazol, 2-(4-Thiazolyl)-benzimidazel]	250 mg/kg	25 mg/kg	
CCOP(=S)(OCC)OC(=CC#N)c1cccc(C)c1 [Verbindung Nr. 12]		1 mg/kg	1 mg/kg
CCOP(=S)(OCC)OC(=CC#N)c1ccccc1Br [Verbindung Nr. 46]		1 mg/kg	1 mg/kg
CCCOP(=S)(OCC)OC(=CC#N)c1ccccc1C (centres unmarked) [Verbindung Nr. 89]		2.5 mg/kg	2.5 mg/kg
